According to patent publication US20120270943A1 (priority 2011, published 2012):
One block for each compound: values may come before it.

What was measured:
[1] = administration of D-aspartic acid hydrochloride and/or ethyl ester hydrochloride; format: in vivo; conditions: administration by ingestion, injection or nasal spray, 10 mg to 100 g per day
Experimental: The D-aspartic acid hydrochloride or D-aspartic acid ethyl ester hydrochloride are administered by ingestion of pills, capsules, powdered drink mixes, beverages, confectionaries, syrups, and/or chewable tablets, or by injection of an aqueous solution, or via a nasal spray.

water solubility = format: physicochemical
humans = conditions: cited from earlier work
pituitary gland; testes = conditions: in vivo; cited from earlier work

water solubility (in words) (water solubility): high water solubility
SMILES: CCOC(=O)C[C@@H](N)C(=O)OCC.Cl [D-aspartic acid diethyl ester hydrochloride]
LH and HGH levels [1]: increase
libido and/or mood [1]: improves/increases
strength, muscle mass, endurance and rate of recovery [1]: increases
testosterone [1]: increase

SMILES: Cl.N[C@H](CC(=O)O)C(=O)O [D-aspartic acid hydrochloride]
LH and HGH levels [1]: increase
libido and/or mood [1]: improves/increases
strength, muscle mass, endurance and rate of recovery [1]: increases
testosterone [1]: increase

SMILES: N[C@H](CC(=O)O)C(=O)O [D-aspartic acid]
LH levels (humans; oral, almost four (4) grams a day, men): increased significantly
rise of testosterone, level greater than day zero (humans; oral, almost four (4) grams a day, peak on day twelve (12), twenty-three (23) men): 42%
levels of testosterone after discontinuation (humans; three (3) days after discontinuation): still significantly increased
effect in the testes upon testosterone production (pituitary gland; testes): direct stimulating effect
release of Luteinizing Hormone (LH) and Growth Hormone (GH) from the pituitary gland (pituitary gland; testes): stimulate the release
